Measurements: patent US9630961B2, “Arginine methyltransferase inhibitors and uses thereof” (Epizyme, Inc., priority 2013, dated 2017)

Target: T1, CARM1 (PRMT4) (Homo sapiens, UniProt Q86X55)
T1 construct: Flag-CARM1-His; made in house; host or cells: HEK 293F cells (BacMam virus)
T1 sequence (Q86X55 1-585 isoform Q86X55-1): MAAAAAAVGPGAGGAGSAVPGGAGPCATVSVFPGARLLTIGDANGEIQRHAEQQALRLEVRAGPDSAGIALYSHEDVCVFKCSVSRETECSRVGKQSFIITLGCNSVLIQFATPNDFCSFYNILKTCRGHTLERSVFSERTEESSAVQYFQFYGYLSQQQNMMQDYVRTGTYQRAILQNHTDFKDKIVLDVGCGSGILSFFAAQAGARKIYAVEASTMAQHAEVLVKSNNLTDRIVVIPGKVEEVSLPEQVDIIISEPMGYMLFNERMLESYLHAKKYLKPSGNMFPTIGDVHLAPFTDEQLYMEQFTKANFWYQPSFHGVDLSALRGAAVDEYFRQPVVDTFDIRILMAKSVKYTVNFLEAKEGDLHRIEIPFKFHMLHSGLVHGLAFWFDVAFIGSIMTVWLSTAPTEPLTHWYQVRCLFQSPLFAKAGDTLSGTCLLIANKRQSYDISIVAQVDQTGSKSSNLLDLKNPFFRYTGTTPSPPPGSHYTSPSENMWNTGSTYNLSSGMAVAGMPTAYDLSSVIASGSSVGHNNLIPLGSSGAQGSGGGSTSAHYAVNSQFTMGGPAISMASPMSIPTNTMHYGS
Experiment: CARM1 Biochemical Assay (3H-SAM Flashplate, peptide substrate)
Details: 30 min preincubation, room temperature
Description: S-adenosylmethionine (SAM), S-adenosylhomocysteine (SAH), bicine, Tween20, dimethylsulfoxide (DMSO), bovine skin gelatin (BSG), sodium butyrate and Tris(2-carboxyethyl)phosphine hydrochloride solution (TCEP) were purchased from Sigma-Aldrich at the highest level of purity possible. ^3H-SAM was purchase from American Radiolabeled Chemicals with a specific activity of 80 Ci/mmol. 384-well streptavidin Flashplates were purchased from PerkinElmer.
Peptide representative of human histone H3 residues 16-30 was synthesized with an N-terminal linker-affinity tag motif and a C-terminal amide cap by 21st Century Biochemicals. The peptide was purified by high-performance liquid chromatography (HPLC) to greater than 95% purity and confirmed by liquid chromatography mass spectrometry (LC-MS). The sequence was Biot-Ahx-[…]-amide and contained a monomethylated arginine at position 26 (SEQ ID NO.:14).
Human CARM1 (PRMT4) (NM_199141.1) transcript clone was amplified from an HEK 293 cDNA library, incorporating a flanking 5′ sequence encoding a FLAG tag ([…]) (SEQ ID NO.:6) fused directly to Ala 2 of CARM1 and 3′ sequence encoding a hexa His sequence ([…]) (SEQ ID NO.:15) fused directly to Ser 608. The gene sequence encoding isoform1 containing a deletion of amino acids 539-561 was amplified subsequently and subcloned into pFastBacMam (Viva Biotech).
Recombinant baculovirus were generated according to Bac-to-Bac kit instructions (Life Technologies). […] Infections were carried out at 37° C. for 48 hours, harvested by centrifugation, and stored at −80° C. for purification.
Column was washed with 500 mM NaCl in buffer A and Flag-CARM1-His was eluted with 200 ug/ml FLAG peptide in buffer A. Pooled fractions were dialyzed in 20 mM Tris, 150 mM NaCl, 5% glycerol and 1 mM DTT, pH 7.8. The purity of recovered protein was 94.
General Procedure for CARM1 Enzyme Assays on Peptide Substrates.
The assays were all performed in a buffer consisting of 20 mM Bicine (pH=7.6), 1 mM TCEP, 0.005% BSG, and 0.002% Tween 20, prepared on the day of use. Compounds in 100% DMSO (1 ul) were spotted into a polypropylene 384-well V-bottom plates (Greiner) using a Platemate Plus outfitted with a 384-channel head (Thermo Scientific). DMSO (1 ul) was added to Columns 11, 12, 23, 24, rows A-H for the maximum signal control and 1 ul of SAH, a known product and inhibitor of CARM1, was added to columns 11, 12, 23, 24, rows I-P for the minimum signal control. A cocktail (40 ul) containing the CARM1 enzyme was added by Multidrop Combi (Thermo-Fisher). The compounds were allowed to incubate with CARM1 for 30 min at room temperature, then a cocktail (10 ul) containing ^3H-SAM and peptide was added to initiate the reaction (final volume=51 ul). The final concentrations of the components were as follows: CARM1 was 0.25 nM, ^3H-SAM was 30 nM, peptide was 250 nM, SAH in the minimum signal control wells was 1 mM, and the DMSO concentration was 2%. The assays were stopped by the addition of non-radiolabeled SAM (10 ul) to a final concentration of 300 uM, which dilutes the ^3H-SAM to a level where its incorporation into the peptide substrate is no longer detectable. 50 ul of the reaction in the 384-well polypropylene plate was then transferred to a 384-well Flashplate and the biotinylated peptides were allowed to bind to the streptavidin surface for at least 1 hour before being washed once with 0.1% Tween20 in a Biotek ELx405 plate washer. The plates were then read in a PerkinElmer TopCount plate reader to measure the quantity of ^3H-labeled peptide bound to the Flashplate surface, measured as disintegrations per minute (dpm) or alternatively, referred to as counts per minute (cpm).
Where dpm=disintegrations per minute, cmpd=signal in assay well, and min and max are the respective minimum and maximum signal controls.
Where top and bottom are the normally allowed to float, but may be fixed at 100 or 0 respectively in a 3-parameter fit. […]

IC50 [µM] | Structure (SMILES)
≥ 10 | CN(CCN)Cc1c[nH]nc1-c1cccs1 [Compound 5]
≥ 10 | CN(CCN)Cc1c[nH]nc1-c1cn[nH]c1 [Compound 12]
3.01 to 10 | CN(CCN)Cc1c[nH]nc1-c1ccsc1 [Compound 3]
≥ 10 | CN(CCN)Cc1c[nH]nc1-c1cncnc1 [Compound 4]
3.01 to 10 | CN(CCN)Cc1c[nH]nc1-c1cnn(C)c1 [Compound 8]
3.01 to 10 | CN(CCN)Cc1c[nH]nc1-c1ccoc1 [Compound 7]
≥ 10 | COc1ncc(-c2n[nH]cc2CN(C)CCN)cn1 [Compound 11]

Second part, the compound before the results:

Structure (SMILES) | IC50 [µM]
CN(CCN)Cc1c[nH]nc1-c1cc[nH]n1 [Compound 14] | ≥ 10
CN(CCN)Cc1c[nH]nc1-c1ccco1 [Compound 6] | 3.01 to 10
CN(CCN)Cc1c[nH]nc1-c1ccc2scnc2c1 [Compound 9] | 1.01 to 3
Cc1noc(C)c1-c1n[nH]cc1CN(C)CCN [Compound 10] | ≥ 10
CN(CCN)Cc1c[nH]nc1-c1cnc2[nH]ccc2c1 [Compound 13] | 0.101 to 1
